Assay results: patent US11458187B2, “Extracellular histones as biomarkers for prognosis and molecular targets for therapy” (OKLAHOMA MEDICAL RESEARCH FOUNDATION, priority 2007, dated 2022)

Legend:
[1] = system: baboons challenged with a lethal dose of E. coli; conditions: infusion of APC (Taylor et al., 1987); cited from earlier work
calf thymus histone H4 = target: T1, calf thymus histone H4 (Bos taurus, UniProt P62803); test: Cleavage of purified histone H4 by APC (SDS-PAGE); type: biochemical; conditions: 37° C.
T1 construct: Purified calf thymus histone H3 (top panel) or histone H4 (bottom panel); purchased Roche; host or cells: calf thymus tissue
Procedure: 0.1 mg/ml histone H4 was incubated with 20 μg/ml human APC in PBS containing 1 mM CaCl2 and MgCl2 at 37° C. for 60 min. Sample was subjected to SDS-PAGE and GelCode Blue (PIERCE) staining or sent to matrix-assisted laser desorption ionization-time of flight facility at the University of Oklahoma Health Science Center for molecular weight determination.

calf thymus histone H3 = test: Cleavage of purified histone H3 by APC (SDS-PAGE); type: biochemical; conditions: 100 μg/ml histone H3, indicated concentrations of human APC, 1 hr, 37° C.; FIG. 13C
Procedure: (FIG. 13C) Purified calf thymus histone H3 (top panel) or histone H4 (bottom panel) (100 μg/ml) was incubated in Opti-MEM medium with the indicated concentrations of human APC for 1 hr at 37° C. Samples were then subjected to SDS-PAGE and coomassie blue staining.

IL-6 = IL-6 production from endothelium (ELISA); type: cell-based, human; conditions: FIG. 8
Procedure: (§1) FIG. 8—Histones induce IL-6 production from endothelium. EA.hy926 cells were stimulated with histone (0.1 mg/ml) or histone H3, histone H4 (50 μg/ml) for 24 hr at 37° C. in the absence or presence of APC (6 μg/ml), Anti-TLR2, Anti-TLR4 (10 μg/ml). Conditioned medium was measured for IL-6 production by IL-6 ELISA kit.

IL-8 = IL-8 production from endothelium (ELISA); type: cell-based, human; conditions: FIG. 9
Procedure: as §1, with “FIG. 9—Histones” for “FIG. 8—Histones”, “induce IL-8” for “induce IL-6”, “for IL-8” for “for IL-6”

[2] = system: baboons challenged with a lethal dose of E. coli; test: Baboon model of sepsis, lethal dose of E. coli with or without infused APC; type: in vivo
Procedure: Six to 8 week male C57BL/6 mice (Jackson Lab) were used according to an animal protocol approved by Institutional Animal Care and Use Committees of the Oklahoma Medical Research Foundation. Baboon experiments were performed as previously described^5.
To test whether extracellular histones may be involved in the pathogenesis of diseases and if APC can cleave these histones in vivo, the inventors examined frozen archival plasma samples from a non-human primate model of sepsis in which baboons were challenged with a lethal dose of E. coli (Taylor et al., 1987). […] The inventors measured extracellular histones in the plasma from animals challenged with the lethal dose of E. coli either in the absence or presence of infused APC. Intact histone H3 was detected by Western blot in the plasma of the two baboons challenged with the lethal dose of E. coli and reached about 15 μg/ml 8 hours post-challenge (FIG. 14E). The inventors were unable to measure other histones in the same way because those anti-histone antibodies were not adequately sensitive. The increase in histone H3 accompanied the onset of acute renal failure as indicated by a high serum creatinine level, 2.65+/−0.05 mg/dL (normal range: 0.7-1.4 mg/dL) 8 hours post-challenge. […] APC co-infusion protected renal function as indicated by the normal serum creatinine level, 1.15+/−0.15 mg/dL at 8 hours post-challenge. […]

[3] = severe sepsis; decreased from about 31%; cited from earlier work
mice = test: Intravenous histone injection lethality in mice; type: in vivo, mouse; conditions: co-injection of 5 mg APC/kg with 75 mg/kg histones, n=5
Procedure: To test the toxic effect of histones in vivo, the inventors injected 75 mg/kg of histones intravenously into mice. […] The calculated histone H3 concentration in the circulation of mice injected with the lethal dose of histones is about 5 times higher than the histone H3 level detected in the baboon plasma 8 hr post challenge with E. coli. […] The ratio of APC to histone H3 used to rescue the mice in vivo is similar to the ratio of APC to histone H3 used in endothelial cytoprotection experiment in vitro.

[4] = APC 6 μg/ml, Anti-TLR2, Anti-TLR4 10 μg/ml, 24 hr
[5] = stimulation of EA.hy926 24 hr, serum-free, histones 0.1 mg/ml, histone H3 or H4 50 μg/ml

Substance | survival of baboons [1] | cleavage of purified histone H4 (calf thymus histone H4; 100 μg/ml histone H4, indicated concentrations of human APC, 1 hr, FIG. 13C) | cleavage of purified histone H4 (calf thymus histone H4; 0.1 mg/ml histone H4, 20 μg/ml human APC, 60 min, 4-7 KD fragments, FIG. 4B) | cleavage of purified histone H3 (calf thymus histone H3) | inhibition of histone-induced IL-6 production (IL-6; [4]) | inhibition of histone-induced IL-8 production (IL-8; [4]) | serum creatinine level ([2]; 8 hours post-challenge, APC co-infusion, normal range 0.7-1.4 mg/dL, 2.65+/−0.05 without APC) | cleavage of extracellular histone H3 in plasma (Western blot) ([2]; two animals challenged with a lethal dose of E. coli and administered APC, FIG. 14E) | mortality [3] | rescue from lethal dose of histones (mice) | IL-6 production (IL-6; [5]) | IL-8 production (IL-8; [5])
APC: Human recombinant APC (Xigris) purchased from Eli Lilly; drotrecogin alfa (activated protein C) | rescued these animals | cleaved histone H3 and H4 in a dose dependent fashion | also cleaved by APC | cleaved histone H3 and H4 in a dose dependent fashion | completely inhibits histone effect on IL-6 and IL-8 production | completely inhibits histone effect on IL-6 and IL-8 production | 1.15 ± 0.15 mg/dL | can cleave extracellular histones in vivo | about 25% | rescued all of the mice |  | 
Pam3CSK4 |  |  |  |  |  |  |  |  |  |  | have no effect | have no effect
